Patent publication EP0550006B1, “Use of N-acyl derivatives of aminoalcohols for the manufacture of a medicament for the treatment of pathologies involving mast cells” (LIFEGROUP S.p.A., priority 1991, dated 1993)
No end group written: not given here.

What was measured:
mast cells [1] = experiment: in vivo mast cell degranulation induced by substance P, general subcutaneous administration; design: species or system Sprague Dawley rats; conditions: rat; compound 20 mg/kg subcutaneous, 30 minutes before substance P 10^-6 M s.c. in the auricular pinna; average of 500-800 cells; solvent group 12
Description: In this case 2-weeks old rats (Sprague Dawley, Charles River) were firstly subcutaneously treated with 20 mg/kg of the substances under question and after 30 minutes were exposed to the degranulation stimulus by s.c. administration of substance P (10^-6 M) in the auricular pinna. Then the rats were sacrificed and the ear pinna removed for histological assessment of mast cell degranulation by counting the number of degranulated mast cells.
The biological parameter of evaluation was the percentage of degranulated mast cells.
In Tab. 2 the obtained results are reported on an average of 500-800 cells.

[2] = organic solvent solubility; conditions: for solubility: organic solvent or mixture
water solubility = conditions: for solubility: water; for water solubility: result in words
mast cells [3] = experiment: in vivo mast cell degranulation induced by substance P, intradermal (topical) application on the auricular pinna; design: species or system Sprague Dawley rats; conditions: for % of degranulated mast cells: rat auricular pinna, compound 0.5 mg/kg intradermal, 10 minutes before substance P 10^-4 M intradermal, sacrifice after 30', solvent group 8
Description: After 10 minutes a local administration of substance P ( 10^-4 M), able to induce a mast cells degranulation response, was carried out still by intradermal route. […] The inhibition degree in mast cells degranulation in the tissues of the animals treated with the compounds under question. in comparison with that of animals treated only with the physiological degranulation factor (substance P) was considered as a parameter for the biological activity.

[4] = system: human rheumatoid arthritis; conditions: Perlik et al. 1974; cited from earlier work
[5] = system: Peritoneal mast cells of rat; experiment: in vitro mast cell degranulation induced by substance P; assay type: cell-based; conditions: compound 10^-5 M, 30 minutes incubation, then substance P 10^-4M
Description: Peritoneal mast cells of rat were taken according to the standard methodology described by Lagunoff (1975, Tech. Biochem. Biophys. Morphol., 2, pp. 289-305).
The cells were then cultured in MEM which 10% fetal calf serum was added to and then incubated in a Haereus^R incubator for 30 minutes.
The derivatives under question at the concentration of 10^-5 M were added to the incubation medium.
At the end of the incubation, the physiological degranulation stimulus represented also in the case by the substance P (10^-4M) was added.
The cells were then centrifugated in order to remove the supernatant formed by the incubation medium and were placed onto a slide after coloration with toluidine blue, for the analysis of the morphological aspect at the optical microscope.
Also under these conditions the parameter to be considered was the percentage of degranulated cells after stimulation with the Substance P.

inflammatory response [6] = conditions: substance extracted from yolk egg, administered to man; Coburn et al 1960; cited from earlier work
inflammatory response [7] = conditions: tested animal; prior art; cited from earlier work
physchem = conditions: organic solvent or mixture

| Molecule | solubility ([2]; ethanol) [µg/mL] | solubility (water solubility) [µg/mL] | water solubility (water solubility) | solubility ([2]; dmso) [µg/mL] | % of degranulated mast cells (mast cells [1]) [%] | further results |
| --- | --- | --- | --- | --- | --- | --- |
| CCCCCCCCCCCCCCCC(=O)NCCO [Example 1, N-palmitoylethanolamide] |  |  | insoluble |  | 65 | % of degranulated mast cells (mast cells [3]): 50%; therapeutic efficacy [4]: beneficial effects were not so remarkable; solubility in organic solvents ([2]; solvents in which soluble, in words): hot methanol, CHCl3, DMSO; % of degranulated mast cells [5]: 52%; therapeutic effect (inflammatory response [6]): not significant; inhibition of the inflammatory response (inflammatory response [7]): generic activity in inhibiting the inflammatory response |
| CCCCCCCCCCCCCCCC(=O)N(CCO)CCO [Example 2, N,N-bis(2-hydroxyethyl)-palmitamide] |  |  | poorly soluble | > 10000 | 48 | % of degranulated mast cells (mast cells [3]): 35%; % of degranulated mast cells [5]: 30% |
| CCCCCCCCCCCCCCCC(=O)NCC(C)O (stereo not drawn) [Example 3, N-(2-hydroxypropyl)-palmitamide] |  |  | poorly soluble | > 3000 | 49.5 | solubility ([2]; n-octanol): > 10000 µg/mL |
| CCCCCCCCCCCCCCCCCC(=O)NCCO [Example 4, N-(2-hydroxyethyl)-stearoylamide] |  |  |  |  | 60 | solubility (physchem; chloroform): > 5000 µg/mL |
| CCCCCCCCCCCC(=O)NCCO [Example 5, N-(2-hydroxyethyl)-lauroylamide] |  |  | poorly soluble | > 10000 | 54 | solubility ([2]; chloroform): > 10000 µg/mL |
| CCCCCCCCCCCC(=O)N(CCO)CCO [Example 6, N,N-bis(2-hydroxyethyl)-lauroylamide] |  |  | poorly soluble | > 10000 | 28 | solubility ([2]; chloroform): > 10000 µg/mL |
| C[C@H](CCC(=O)NCCO)[C@H]1CC[C@H]2[C@@H]3CC[C@@H]4C[C@H](O)CC[C@]4(C)[C@H]3C[C@H](O)[C@]12C [Example 12, N-(2-hydroxyethyl)-desoxycholamide] |  |  |  |  |  | solubility (physchem; dmso): > 10000 µg/mL |
| O=C(NCCO)c1ccccc1O [Example 13, N-(2-hydroxethyl)-salicylamide] |  |  |  |  | 38 |  |
| substance P (RPKPQQFFGLM; ends and bridges not checked; UniProt P20366 58-68, looked up) [reference compound] |  |  |  |  | 92 | % of degranulated mast cells (mast cells [3]): 94%; mast cells degranulation (morphological analysis) (mast cells [3]; rat pinna, intradermal, result in words): induced a degranulation in the majority of mast cells; % of degranulated mast cells [5]: 96% |

More lines, main results first:

| solubility ([2]; ethanol) [µg/mL] | solubility (water solubility) [µg/mL] | water solubility (water solubility) | solubility ([2]; dmso) [µg/mL] | Molecule | % of degranulated mast cells (mast cells [1]) [%] | further results |
| --- | --- | --- | --- | --- | --- | --- |
| > 10000 | > 10000 |  |  | O=C(CCCCC1CCSS1)NCCO (racemic) [Example 15, N-(2-hydroxyethy)-DL-α-lipoamide] | 40 |  |
| > 10000 | > 10000 |  | > 10000 | O=C(CCCO)NCCO [Example 7, N-(2-hydroxyethyl)-4-hydroxybutirramide] |  |  |
| > 10000 | > 10000 |  | > 10000 | O=C(NCCO)c1ccccc1 [Example 8, N-(2-hydroxyethyl)-benzoylamide] | 48.8 |  |
| > 10000 | > 10000 |  | > 10000 | O=C(c1ccccc1)N(CCO)CCO [Example 9, N,N -bis-(2-hydroxyethyl)-benzoylamide] | 36.8 |  |
|  |  | poorly soluble | > 10000 | CCCCCCCC/C=C\CCCCCCCC(=O)N(CCO)CCO [Example 10, N,N -bis-(2-hydroxyethyl)-oleoylamide] | 44 | solubility ([2]; chloroform): > 10000 µg/mL |
| > 10000 |  | poorly soluble |  | CCCCC/C=C\C/C=C\CCCCCCCC(=O)N(CCO)CCO [Example 11, N,N -bis-(2-hydroxyethyl)-linoleoylamide] | 71 | solubility ([2]; chloroform): > 10000 µg/mL |
|  | > 10000 |  |  | O=C(NCCO)c1ccncc1 [Example 14, N-(2-hydroxyethyl)-isonicotinamide] |  | solubility ([2]; methanol): > 10000 µg/mL |
